Test system: patients after acute myocardial infarction
Assay: TCM symptom score, total and single (chest pain, chest tightness, short breath, fatigue, palpitation, spontaneous perspiration, pale complexion), same clinical trial
Type: in vivo, human
Set-up: total score of TCM symptom, Mean / total score of TCM symptom, Min / total score of TCM symptom, Max / total score of TCM symptom, Md / change of total score of TCM symptom, Mean / change of total score of TCM symptom, Max / change of total score of TCM symptom, Md: scale not given here
Settings: FAS
Description: 3508 patients who were in accordance with the diagnostic standards of AMI for 28 days to 2 years and differentiated as Qi deficiency and blood stagnation syndrome by TCM were studied. 0.5 g Chinese medicine composition prepared by the method of EXAMPLE 1 (Coded as QSYQ) was administrated half an hour after meal, 3 times per day.
They included the overall survival time, angina pectoris score, TCM symptom score and life quality score, where angina pectoris score, TCM symptom score and life quality score were evaluated at randomization, in 1st, 3rd, 6th, 9th, 12th month after treatment and 18th month after follow-up.
The analysis method referred to the angina pectoris score.

[1] = 6 months after treatment-baseline
[2] = 9 months after treatment-baseline

SMILES: CC(=O)Oc1ccccc1C(=O)O [Control group, aspirine]
- change of fatigue −2, number of patients [1]: 108
- change of fatigue −4, % of patients [1]: (0.70%)
- change of fatigue −4, number of patients [1]: 12
- change of fatigue −6, % of patients [1]: (0.00%)
- change of fatigue −6, number of patients [1]: 0
- change of pale complexion 0, number of patients [1]: 1322
- change of pale complexion 0, percent of patients [1]: (77.40%)
- change of pale complexion 1, number of patients [1]: 319
- change of pale complexion 1, percent of patients [1]: (18.68%)
- change of pale complexion −1, number of patients [1]: 67
- change of pale complexion −1, percent of patients [1]: (3.92%)
- change of palpitation 0, number of patients [1]: 1034
- change of palpitation 0, percent of patients [1]: (60.47%)
- change of palpitation 1, number of patients [1]: 490
- change of palpitation 1, percent of patients [1]: (28.65%)
- change of palpitation 2, number of patients [1]: 56
- change of palpitation 2, percent of patients [1]: (3.27%)
- change of palpitation 3, number of patients [1]: 9
- change of palpitation 3, percent of patients [1]: (0.53%)
- change of palpitation −1, percent of patients [1]: (6.78%)
- change of palpitation −2, number of patients [1]: 5
- change of palpitation −2, percent of patients [1]: (0.29%)
- change of palpitation −3, number of patients [1]: 0
- change of palpitation −3, percent of patients [1]: (0.00%)
- change of short breath 0, % of patients [1]: (64.85%)
- change of short breath 0, number of patients [1]: 1109
- change of short breath 2, % of patients [1]: (25.44%)
- change of short breath 2, number of patients [1]: 435
- change of short breath 4, % of patients [1]: (2.98%)
- change of short breath 4, number of patients [1]: 51
- change of short breath 6, % of patients [1]: (0.53%)
- change of short breath 6, number of patients [1]: 9
- change of short breath −2, % of patients [1]: (5.96%)
- change of short breath −2, number of patients [1]: 102
- change of short breath −4, % of patients [1]: (0.12%)
- change of short breath −4, number of patients [1]: 2
- change of short breath −6, % of patients [1]: (0.12%)
- change of short breath −6, number of patients [1]: 2
- change of spontaneous perspiration 0, number of patients [1]: 959
- change of spontaneous perspiration 0, percent of patients [1]: (56.11%)
- change of spontaneous perspiration 1, number of patients [1]: 468
- change of spontaneous perspiration 1, percent of patients [1]: (27.38%)
- change of spontaneous perspiration 2, number of patients [1]: 93
- change of spontaneous perspiration 2, percent of patients [1]: (5.44%)
- change of spontaneous perspiration 3, number of patients [1]: 29
- change of spontaneous perspiration 3, percent of patients [1]: (1.70%)
- change of spontaneous perspiration −1, number of patients [1]: 137
- change of spontaneous perspiration −1, percent of patients [1]: (8.02%)
- change of spontaneous perspiration −2, number of patients [1]: 23
- change of spontaneous perspiration −2, percent of patients [1]: (1.35%)
- change of spontaneous perspiration −3, number of patients [1]: 0
- change of spontaneous perspiration −3, percent of patients [1]: (0.00%)
- change of total score of TCM symptom, Max [1]: 19.00
- change of total score of TCM symptom, Md [1]: −3.00
- change of total score of TCM symptom, Mean [1]: −3.76
- change of total score of TCM symptom, Min [1]: −33.00
- distribution of total score of TCM symptom: Medium, number of patients (9 months after treatment): 345
- distribution of total score of TCM symptom: Medium, percentage of patients (9 months after treatment): (23.03%)
- distribution of total score of TCM symptom: Mild, number of patients (9 months after treatment): 1149
- distribution of total score of TCM symptom: Mild, percentage of patients (9 months after treatment): (76.70%)
- distribution of total score of TCM symptom: Severe, number of patients (9 months after treatment): 4
- distribution of total score of TCM symptom: Severe, percentage of patients (9 months after treatment): (0.27%)
- fatigue score 0, % of patients (9 months after treatment): (33.53%)
- fatigue score 0, number of patients (9 months after treatment): 576
- fatigue score 2, % of patients (9 months after treatment): (60.24%)
- fatigue score 2, number of patients (9 months after treatment): 1035
- fatigue score 4, % of patients (9 months after treatment): (5.12%)
- fatigue score 4, number of patients (9 months after treatment): 88
- fatigue score 6, % of patients (9 months after treatment): (1.11%)
- fatigue score 6, number of patients (9 months after treatment): 19
- pale complexion score 0, number of patients (9 months after treatment): 912
- pale complexion score 0, percent of patients (9 months after treatment): (53.08%)
- pale complexion score 1, number of patients (9 months after treatment): 653
- pale complexion score 1, percent of patients (9 months after treatment): (38.01%)
- pale complexion score 2, number of patients (9 months after treatment): 142
- pale complexion score 2, percent of patients (9 months after treatment): (8.27%)
- pale complexion score 3, number of patients (9 months after treatment): 11
- pale complexion score 3, percent of patients (9 months after treatment): (0.64%)
- palpitation score 0, number of patients (9 months after treatment): 581
- palpitation score 0, percent of patients (9 months after treatment): (33.82%)
- palpitation score 2, number of patients (9 months after treatment): 929
- palpitation score 2, percent of patients (9 months after treatment): (54.07%)
- palpitation score 4, number of patients (9 months after treatment): 179
- palpitation score 4, percent of patients (9 months after treatment): (10.42%)
- palpitation score 6, number of patients (9 months after treatment): 29
- palpitation score 6, percent of patients (9 months after treatment): (1.69%)
- short breath score 0, % of patients (9 months after treatment): (28.46%)
- short breath score 0, number of patients (9 months after treatment): 489
- short breath score 3, % of patients (9 months after treatment): (57.86%)
- short breath score 3, number of patients (9 months after treatment): 994
- short breath score 6, % of patients (9 months after treatment): (13.21%)
- short breath score 6, number of patients (9 months after treatment): 227
- short breath score 9, % of patients (9 months after treatment): (0.47%)
- short breath score 9, number of patients (9 months after treatment): 8
- spontaneous perspiration score 0, number of patients (9 months after treatment): 788
- spontaneous perspiration score 0, percent of patients (9 months after treatment): (45.87%)
- spontaneous perspiration score 1, number of patients (9 months after treatment): 813
- spontaneous perspiration score 1, percent of patients (9 months after treatment): (47.32%)
- spontaneous perspiration score 2, number of patients (9 months after treatment): 105
- spontaneous perspiration score 2, percent of patients (9 months after treatment): (6.11%)
- spontaneous perspiration score 3, number of patients (9 months after treatment): 12
- spontaneous perspiration score 3, percent of patients (9 months after treatment): (0.70%)
- total score of TCM symptom, Max (9 months after treatment): 37.00
- total score of TCM symptom, Md (9 months after treatment): 8.00
- total score of TCM symptom, Mean (9 months after treatment): 9.29
- total score of TCM symptom, Min (9 months after treatment): 0.00
- change of fatigue 0, % of patients [2]: (50.53%)
- change of fatigue 0, number of patients [2]: 864
- change of fatigue 2, % of patients [2]: (33.45%)
- change of fatigue 2, number of patients [2]: 572
- change of fatigue 4, % of patients [2]: (7.31%)
- change of fatigue 4, number of patients [2]: 125
- change of fatigue 6, % of patients [2]: (1.17%)
- change of fatigue 6, number of patients [2]: 20
- change of fatigue −2, % of patients [2]: (6.73%)
- change of fatigue −2, number of patients [2]: 115
- change of fatigue −4, % of patients [2]: (0.76%)
- change of fatigue −4, number of patients [2]: 13
- change of fatigue −6, % of patients [2]: (0.06%)
- change of fatigue −6, number of patients [2]: 1
- change of pale complexion 0, number of patients [2]: 1284
- change of pale complexion 0, percent of patients [2]: (75.18%)
- change of pale complexion 1, number of patients [2]: 365
- change of pale complexion 1, percent of patients [2]: (21.37%)
